Results taken from patent US20250314644A1, “METHODS COMPRISING DETECTION OF ADP-HEPTOSE” (CHILDREN'S HOSPITAL MEDICAL CENTER, priority 2023, published 2025).

Tests used:
WT HSPCs = experiment: NF-κB activation in vitro (NF-κB^GFP reporter, immunoblot); type: cell-based, mouse
Source text: (§1) Because intestinal epithelial injury and dysbiosis mediate the expansion of Dnmt3a-mutant pre-leukemic cells was observed, Applicant evaluated whether this occurs because of ADP-heptose-mediated ALPK1 signaling. Indeed, Dnmt3a^−/− HSCs were exquisitely sensitive to ADP-heptose stimulation in vitro. […] Activation of NF-κB in Dnmt3a^−/− HSPCs occurred following treatment with ADP-heptose (FIG. 3L). […] Constitutive combined activation of NF-κB and MAPK, such as during chronic inflammation with IL-1β, promotes differentiation of HSCs at the expense of self-renewal, leading to depletion of the HSC population.
(§2) Dnmt3a^f/f and MxCre^+ (obtained from H. Lee Grimes Laboratory, CCHMC)^33, Alpk1^−/− (11 bp deletion in exon 3, C57BL/6N-Alpk1^em1Fsha/J, Cat no. 032561, Jackson Laboratory), Tifa^−/− (gift from Jun-Ichiro Inoue, University of Tokyo, Japan), and UBC-GFP (C57BL/6-Tg(UBC-GFP)30Scha/J, Cat no. 004353, Jackson Laboratory) mice were maintained on CD45.2+C57BL/6 background. NF-kB^GFP reporter mice were generously provided by C. Jobin. Throughout the study, CD45.1+B6.SJL-Ptprc^a (BoyJ) mice were used as recipients for BM transplantation experiments. […] Mice were bred, housed and monitored daily by laboratory staff and veterinary personnel for health and activity. […]
(§3) Protein concentration was evaluated by bicinchoninic acid (BCA) assay (Pierce, Cat #23225). […]

Dnmt3a^−/− HSCs = experiment: as above; type: cell-based, mouse; conditions: NF-κB^GFP HSCs compared to WT
Source text: as §1, §2, §3

Compound: Nc1ncnc2c1ncn2[C@@H]1O[C@H](COP(=O)(O)OP(=O)(O)O[C@@H]2O[C@H]([C@H](O)CO)[C@@H](O)[C@H](O)[C@@H]2O)[C@@H](O)[C@H]1O [ADP-heptose, ADP-D-glycero-β-D-manno-heptose]
- concentration of ADP-heptose required to induce NF-κB activation (WT HSPCs): > 1 µM
- NF-κB activation (NF-κB^GFP reporter) (Dnmt3a^−/− HSCs): robust and sustained NF-κB activation
